The values that follow come from patent US20120029002A1, “BENZIMIDAZOLE AND PYRAZOLOPYRIDINE DERIVATIVES FOR TREATING AND/OR PREVENTING CARDIOVASCULAR DISEASES” (BAYER SCHERING PHARMA AKTIENGESELLSCHAFT, priority 2009, published 2012).

The experiment deals with aorta rings. Kind of experiment: Vasorelaxant effect in vitro (phenylephrine-contracted rabbit aorta rings). The settings on record: Oryctolagus cuniculus; concentration necessary to reduce the height of the phenylephrine-induced contraction of rabbit aorta rings by 50%; organ bath, 37° C., 0.1% DMSO. It counts as cell-based, Rabbits. On the procedure:
B-1. Vasorelaxant effect in vitro
Rabbits are stunned by a blow to the neck and exsanguinated. The aorta is removed, freed from adhering tissue and divided into rings of a width of 1.5 mm The rings are placed individually under an initial tension in 5 ml organ baths with Krebs-Henseleit solution which is at 37° C., is gassed with carbogen and has the following composition (in each case mM): NaCl: 119; KCl: 4.8; CaCl2×2 H2O: 1; MgSO4×7 H2O: 1.4; KH2PO4: 1.2; NaHCO3: 25; glucose: 10. The force of contraction is detected with Statham UC2 cells, amplified and digitized via A/D converters (DAS-1802 HC, Keithley Instruments, Munich) and recorded in parallel on chart recorders. Contractions are induced by cumulatively adding increasing concentrations of phenylephrine to the bath. After several control cycles, the substance to be investigated is added in each further run in increasing dosage, and the height of the contraction achieved is compared with the height of the contraction reached in the last preceding one. The concentration necessary to reduce the height of the control value by 50% is calculated from this (IC50 value). The standard application volume is […] the proportion of DMSO in the bath solution corresponds to 0.1%.
Regarding `CC(C)OC(=O)Nc1c(N)nc(-n2nc(Sc3ccccc3F)c3ccccc32)nc1N` [Example 12, Propan-2-yl (4,6-diamino-2-[3-[(2-fluorophenyl)sulphanyl]-1H-indazol-1-yl]pyrimidin-5-yl)-carbamate], the IC50 stood at 4.93 µM.
`CC(C)OC(=O)Nc1c(N)nc(-n2nc(Sc3ccccc3F)c3ncccc32)nc1N` [Example 9, Propan-2-yl (4,6-diamino-2-{3-[(2-fluorophenyl)sulphanyl]-1H-pyrazolo[4,3-b]pyridin-1-yl}pyrimidin-5-yl)carbamate] came in with an IC50 of 1.43 µM. Compared with the last compound, the IC50 is about 3.4-fold lower.
`CC(C)OC(=O)Nc1c(N)nc(-n2nc(Oc3ccccc3F)c3ccccc32)nc1N` [Example 19, Propan-2-yl{4,6-diamino-2-[3-(2-fluorophenoxy)-1H-indazol-1-yl]pyrimidin-5-yl}carbamate]: inhibition was half-maximal at 5.64 µM (IC50).
`Nc1nc(-n2nc(Sc3ccccc3F)c3ccccc32)nc(N)c1N` [Example 3, 2-{3-[(2-Fluorophenyl)sulphanyl]-1H-indazol-1-yl}pyrimidine-4,5,6-triamine] displayed a half-inhibitory concentration (IC50) of 2.15 µM.

For orientation: IC50 means the concentration that gives 50% inhibition. The low end stands for greater potency, the high end for weaker potency.
